Experiments:
Test in all cases: relative viability (nuclei count vs DMSO), 5 days (fraction); higher = more cells survive
[1] = compound: CN1C=C(C2=CC=CC=C21)/C=C\3/C4=C(C=CC=N4)NC3=O + O=C(c1cc(Cc2n[nH]c(=O)c3ccccc23)ccc1F)N1CCN(C(=O)C2CC2)CC1 [Olaparib] (partner 8 µM)
Procedure, shortened: (§1)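 Lung cancer cell lines were seeded in 1536-well plates and dosed by pin tool the next day, with either a single drug or a fixed anchor-drug dose combined with five library-drug doses (not always all listed) spaced in √10 steps. Five days later, one step fixed the cells and stained their nuclei (final 0.05% Triton X-100, 1% formaldehyde, 1 ug/ml Hoechst), and nuclei were counted on 4× images. Relative viability is the nuclei count in treated wells divided by the count in vehicle wells, and each value is the median of duplicate plates.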

Trametinib + OSI-027 = compound: CC(=O)Nc1cccc(-n2c(=O)n(C3CC3)c(=O)c3c(Nc4ccc(I)cc4F)n(C)c(=O)c(C)c32)c1 [Trametinib] + COc1cccc2cc(-c3nc([C@H]4CC[C@H](C(=O)O)CC4)n4ncnc(N)c34)[nH]c12 [OSI-027] (partner 0.5 µM)
Procedure, shortened: as §1

[2] = compound: CN1C=C(C2=CC=CC=C21)/C=C\3/C4=C(C=CC=N4)NC3=O + Cc1nc(NC(=O)N2CCC[C@H]2C(N)=O)sc1-c1ccnc(C(C)(C)C(F)(F)F)c1 [Alpelisib] (partner 2 µM)
Procedure, shortened: as §1

[3] = compound: CN1C=C(C2=CC=CC=C21)/C=C\3/C4=C(C=CC=N4)NC3=O + CC(=O)c1c(C)c2cnc(Nc3ccc(N4CCNCC4)cn3)nc2n(C2CCCC2)c1=O [Palbociclib] (partner 0.5 µM)
Procedure, shortened: as §1

Row | Cell Line | relative viability ([1]; first compound 0.02 µM) | relative viability ([1]; first compound 0.06325 µM) | relative viability ([1]; first compound 0.2 µM) | relative viability ([1]; first compound 0.6325 µM) | relative viability ([1]; first compound 2 µM) | relative viability (Trametinib + OSI-027; first compound 0.0025 µM) | relative viability (Trametinib + OSI-027; first compound 0.007906 µM) | relative viability (Trametinib + OSI-027; first compound 0.025 µM) | relative viability (Trametinib + OSI-027; first compound 0.07906 µM) | relative viability (Trametinib + OSI-027; first compound 0.25 µM) | relative viability ([2]; first compound 0.02 µM) | relative viability ([2]; first compound 0.06325 µM) | relative viability ([2]; first compound 0.2 µM) | relative viability ([2]; first compound 0.6325 µM) | relative viability ([2]; first compound 2 µM) | relative viability ([3]; first compound 0.02 µM) | relative viability ([3]; first compound 0.06325 µM) | relative viability ([3]; first compound 0.2 µM) | relative viability ([3]; first compound 0.6325 µM) | relative viability ([3]; first compound 2 µM)
1 | BEN | 1.01 | 0.91 | 0.885 | 1.14 | 1.24 | 0.317 | 0.274 | 0.27 | 0.294 | 0.325 | 1.05 | 0.932 | 0.981 | 1 | 1.13 | 0.453 | 0.409 | 0.465 | 0.48 | 0.49
2 | LXF-289 | 1.09 | 0.998 | 1.19 | 1.07 | 1.1 | 0.766 | 0.656 | 0.452 | 0.453 | 0.243 | 1.09 | 1.06 | 1.12 | 1.02 | 1.1 | 0.589 | 0.593 | 0.626 | 0.656 | 0.775
3 | NCI-H358 | 0.607 | 0.534 | 0.564 | 0.565 | 0.507 | 0.393 | 0.341 | 0.19 | 0.174 | 0.14 | 0.824 | 0.776 | 0.752 | 0.833 | 0.791 | 0.147 | 0.152 | 0.123 | 0.13 | 0.138
4 | NCI-H1993 | 0.781 | 1.09 | 1.06 | 0.972 | 0.966 | 0.545 | 0.606 | 0.624 | 0.657 | 0.699 | 0.631 | 0.653 | 0.678 | 0.736 | 0.698 | 0.606 | 0.594 | 0.656 | 0.455 | 1.19
5 | NCI-H727 | 0.76 | 0.729 | 0.67 | 0.688 | 0.635 | 0.426 | 0.39 | 0.266 | 0.274 | 0.317 | 0.48 | 0.533 | 0.307 | 0.466 | 0.604 | 0.63 | 0.575 | 0.653 | 0.652 | 0.623
6 | LOU-NH91 | 0.906 | 0.871 | 0.883 | 0.841 | 0.901 | 0.735 | 0.654 | 0.568 | 0.53 | 0.478 | 0.658 | 0.698 | 0.598 | 0.698 | 0.69 | 0.427 | 0.524 | 0.512 | 0.506 | 0.51
7 | NCI-H1975 | 0.803 | 0.737 | 0.674 | 0.61 | 0.47 | 0.643 | 0.422 | 0.402 | 0.299 | 0.196 | 0.603 | 0.718 | 0.536 | 0.625 | 0.498 | 0.623 | 0.361 | 0.45 | 0.442 | 0.504
8 | PC-3 [JPC-3] | 1.03 | 1.1 | 1.12 | 1.2 | 1.16 | 0.803 | 0.635 | 0.675 | 0.595 | 0.581 | 1.02 | 0.99 | 1.03 | 1.03 | 0.989 | 0.535 | 0.521 | 0.545 | 0.562 | 0.515
9 | NCI-H2126 | 0.888 | 0.853 | 0.919 | 0.971 | 0.883 | 0.671 | 0.506 | 0.375 | 0.535 | 0.488 | 0.794 | 0.775 | 0.741 | 0.716 | 0.6 | 0.325 | 0.31 | 0.348 | 0.319 | 0.326
10 | LU99A | 0.253 | 0.24 | 0.274 | 0.21 | 0.278 | 0.301 | 0.294 | 0.287 | 0.326 | 0.297 | 0.479 | 0.487 | 0.555 | 0.5 | 0.504 | 0.374 | 0.417 | 0.393 | 0.381 | 0.432
11 | NCI-H23 | 0.253 | 0.357 | 0.218 | 0.293 | 0.262 | 0.588 | 0.429 | 0.268 | 0.374 | 0.158 | 0.628 | 0.522 | – | 0.602 | 0.689 | 0.506 | 0.408 | 0.417 | 0.499 | 0.486
12 | PC-14 | 0.213 | 0.237 | 0.197 | 0.235 | 0.251 | 0.843 | 0.72 | 0.427 | 0.411 | 0.155 | 0.99 | 1.03 | 1.19 | 0.906 | 1.04 | 0.539 | 0.536 | 0.55 | 0.617 | 0.545
13 | HCC-44 | 0.908 | 0.954 | 1.02 | 0.997 | 0.942 | 0.487 | 0.249 | 0.424 | 0.311 | 0.183 | 0.737 | 0.74 | 0.722 | 0.564 | 0.705 | 0.902 | 0.959 | 0.956 | 0.934 | 0.913
